In assay [1] the target is T1, Glucokinase (GK) (Homo sapiens, UniProt P35557).
T1 construct: gene GCK; full-length human glucokinase (GenBank: BC001890.1), C-terminally hexa-histidine tagged
T1 sequence (P35557 1-465): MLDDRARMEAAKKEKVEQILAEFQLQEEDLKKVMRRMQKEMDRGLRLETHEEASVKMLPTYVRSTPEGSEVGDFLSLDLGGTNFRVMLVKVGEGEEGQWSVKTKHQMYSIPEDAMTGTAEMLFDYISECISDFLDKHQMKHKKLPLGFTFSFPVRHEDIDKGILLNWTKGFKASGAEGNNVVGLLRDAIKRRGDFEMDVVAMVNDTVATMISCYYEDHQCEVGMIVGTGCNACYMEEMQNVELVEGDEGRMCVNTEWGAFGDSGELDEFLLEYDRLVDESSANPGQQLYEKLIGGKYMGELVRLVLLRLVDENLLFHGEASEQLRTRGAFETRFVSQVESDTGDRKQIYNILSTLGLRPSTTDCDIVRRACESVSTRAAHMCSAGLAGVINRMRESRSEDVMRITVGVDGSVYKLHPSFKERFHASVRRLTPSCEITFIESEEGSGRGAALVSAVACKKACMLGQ
In words: microscale thermophoresis with labelled recombinant GK; also coupled G6PDH enzyme activation assay (EC50 ca. […]). The following applies: read-out: Dissociation constant with GK / Kd. The assay is classed as binding.

The target in assay [2] is T1, Glucokinase (GK). Put plainly: biochemical. Also noted: G6PDH-coupled spectrophotometric glucokinase activity, NADPH absorbance at 340 nm, 10 mM glucose, 37 °C. The following applies: for remaining activity at 50 µM: untreated GK = 100%, read-out: % of control remaining. The method, then: The in vitro efficacy of twelve compounds was assessed in two separate steps: a SC50 assay to evaluate the potency of each compound at a unified compound concentration of 50 μM. Then, we seek to obtain the values of EC50 and kinetic parameters Ka, Vmax of promising compounds, according to a reported method with minor modifications. Briefly, Twelve compounds unified in the same concentration of 50 μM were assayed in a 96-well plate with a final reaction volume of 100 μl. The reaction mixture consisted of 25 mM Hepes (pH 7.5), 10 mM glucose, 1 mM ATP, 4 U/ml G6PDH (Sigma-Aldrich Co. LLC., St. Louis, MO, USA), 1 mM NADP, 2.5 mM MgCl, 50 mM KCl, 2 mM DTT, […] recombinant human glucokinase and test compounds. The whole reaction mixtures were kept under 37 °C for 20 minutes. The increase in the rate of absorbance of NADPH generated in the reactions was monitored kinetically at 340 nm. The values were calculated by comparing with untreated GK. This term is called the efficacy of stimulatory concentration (SC50). Then, the EC50 of promising candidates were determined in the presence of various fixed concentrations of compound 7 (2–300 μM). Values were calculated by fitting enzymatic rates to the Hill equation by using GraphPad Prism 5.01. In order to further investigate the activation effect of the twelve compounds on GK enzymatic activity, the recombinant GK protein had been successfully obtained by genetic engineering method. Evaluation of the twelve hits on enzymatic activity was assessed spectrometrically by a coupled reaction with glucose-6-phosphate dehydrogenase. […] The activation percentage was the GK enzyme activity in each group compared to that of the blank control group. Each compound was assayed triply. The value presents in a column as the mean ± SD (n = 3). *P < 0.05, **P < 0.01, compared to the blank control group.

The target in assay [3] is T1, Glucokinase (GK). Put plainly: microscale thermophoresis with labelled recombinant GK. The assay is classed as binding. The following applies: read-out: Dissociation constant with GK / Kd.

With `O=c1c2cc(O)c(O)cc2oc2cc(O)c([C@@H]3O[C@H](CO)[C@@H](O)[C@H](O)[C@H]3O)c(O)c12` [compound 7, mangiferin], in assay [1], the Kd came out at 472 ± 20.5 µM. Also, in assay [2], the EC50 was 156 µM and the remaining activity at 50 µM worked out at 126 ± 2.83%. As to `NC(=O)c1coc(-c2csc(NC(=O)c3ccc(Cl)cc3)n2)c1` [compound 2, 2], in assay [2], the remaining activity at 50 µM was determined as 86.5 ± 5.71%. Turning to `Oc1ccc(Nc2ncnc3sccc23)cc1CN1CCOCC1` [compound 4, 4], the remaining activity at 50 µM in assay [2] is 37.8 ± 12%.

In the case of `O=C(Nc1ncc(SCCN2CCCC2)s1)[C@]1(c2ccc(S(=O)(=O)C3CC3)cc2)C[C@H]1C1CCCCC1` [LY2608204], in assay [3], the Kd came to 600 ± 36.1 µM.

On to `O=C(NCC(c1cccs1)c1c[nH]c2ccccc12)c1ccccn1` (centres unmarked) [compound 6, 6], for which, in assay [2], the remaining activity at 50 µM is 90 ± 3.88%. As for `O=C(Nc1nc(-c2c[nH]c3ccccc23)cs1)c1cnccn1` [compound 1, 1], in assay [2], the remaining activity at 50 µM came to 86.1 ± 5.68%. With `Cc1nc(S)sc1CC(=O)Nc1c[nH]ccc1=O` [compound 3, 3], the remaining activity at 50 µM in assay [2] was found to be 46.7 ± 1.21%.

As to `Cc1sc2ncnc(SCC(=O)Nc3c[nH]ccc3=O)c2c1C` [compound 5, 5], the remaining activity at 50 µM in assay [2] came to 87.6 ± 5.67%. The same measure, in the same setting: the value for `Cn1ccc(NC(=O)N(Cc2ccccc2)CC(O)c2ccco2)n1` (centres unmarked) [compound 9, 9] was 82.4 ± 6.72%; that for `O=C1NCC(c2ccc(Cl)cc2)Cc2[nH]c(-c3ncc[nH]3)nc21` (centres unmarked) [compound 10, 10] was 94.3 ± 1.49%; that for `COc1ccccc1C(=O)Nc1cccc(NC(=O)c2ncc[nH]2)c1` [compound 11, 11] was 75.9 ± 6.72%. `CC(O)CNc1nc2ccccc2n1Cc1nc(N)nc(N(C)C)n1` (centres unmarked) [compound 8, 8]: the remaining activity at 50 µM in assay [2] is 92 ± 0.96%.

Source of the values: publication PMC5357792, “Identification of mangiferin as a potential Glucokinase activator by structure-based virtual ligand screening” (Scientific Reports, 2017).
